Series [1] deals with Mus musculus. As to the kind of experiment: Prolongation of bleeding time in mouse at 30 uM/kg, po administered as single dose by tail excision method. The class given is ADME, organism-based. Conditions: in vivo.
The subject of series [2] is Mus musculus. Nature of the series: Antithrombotic activity in mouse assessed as protection against collagen-epinephrine-induced pulmonary thromboembolism at 30 uM/kg, po administered 60 mins prior to thrombotic challenge. The class given is functional.
Series [3] in a line: Antiplatelet activity in human platelet-rich plasma assessed as inhibition of collagen-induced platelet aggregation at 10 uM treated for 5 mins prior to collagen challenge for 5 mins by turbidimetric method. The class given is functional.

Molecules are shown by their SMILES.

Regarding `Cc1ccc(CN2C(=O)OC[C@H]2C(=O)N2CCC[C@H](CNC(=O)OC(C)(C)C)C2)cc1`, the Activity in the series with Mus musculus [1] is reported as 10%; in the series with Mus musculus [2], 20%.
With `CC(C)(C)OC(=O)NC[C@H]1CCCN(C(=O)[C@@H]2CCC(=O)N2Cc2cccc(C#N)c2)C1`, the inhibition (usually the drop in the measured response relative to a control, in per cent) at 10 µM in series [3] worked out at 19%. Further, the Activity in the series with Mus musculus [2] stood at 20%.
Regarding `CC(C)(C)OC(=O)NC[C@@H]1CCCN(C(=O)[C@@H]2CCC(=O)N2Cc2ccccc2Br)C1`, the inhibition at 10 µM in series [3] is 27%. In the series on Mus musculus [2], the Activity is 50%.
On to `Cc1ccc(CN2C(=O)CC[C@H]2C(=O)N2CCC[C@@H](CNC(=O)[C@@H](NC(=O)OCc3ccccc3)C(C)C)C2)cc1`, for which the Activity in the series with Mus musculus [2] was found to be 10%.
As for `COc1ccccc1CN1C(=O)CC[C@H]1C(=O)N1CCC[C@H](CNC(=O)OC(C)(C)C)C1`, the inhibition at 10 µM in series [3] came to 22%. Moreover, the Activity with Mus musculus [2] was determined as 50%.
For `COc1ccc(CN2C(=O)CC[C@H]2C(=O)N2CCC[C@H](CNC(=O)OC(C)(C)C)C2)cc1`, in that order: 25% and 20%.
Consider `Cc1ccc(CN2C(=O)CC[C@H]2C(=O)N2CCC[C@@H](CNC(=O)[C@H](CC(C)C)NC(=O)OCc3ccccc3)C2)cc1`, for which the Activity with Mus musculus [2] is given as 30%.
In the case of `CC(C)(C)OC(=O)NC[C@H]1CCCN(C(=O)[C@@H]2CCC(=O)N2Cc2ccc(C#N)cc2)C1`, the inhibition at 10 µM in series [3] is 25%. The Activity with Mus musculus [2] stood at 10%.
On the same counts, the results for `COc1ccc(CN2C(=O)CC[C@H]2C(=O)N2CCC[C@@H](CNC(=O)OC(C)(C)C)C2)cc1` are 7% and 20%.
On the same counts, the results for `Cc1cccc(CN2C(=O)CC[C@H]2C(=O)N2CCC[C@H](CNC(=O)OC(C)(C)C)C2)c1` are 13% and 70%.
Take `Cc1ccc(CN2C(=O)CC[C@H]2C(=O)N2CCC[C@@H](CNC(=O)[C@H](Cc3ccccc3)NC(=O)OCc3ccccc3)C2)cc1`: the Activity with Mus musculus [2] was determined as 30%.
Still for that read-out and setting: in the case of `CC1OCC(=O)N(Cc2ccccc2)[C@@H]1C(=O)N1CCC[C@@H](CNC(=O)OC(C)(C)C)C1` (some centres undefined) it was 20%.
For the molecule `Cc1ccc(CN2C(=O)CSC[C@H]2C(=O)N2CCCC(CNC(=O)OC(C)(C)C)C2)cc1` (single isomer, unassigned), the inhibition at 10 µM in series [3] worked out at 18%. The Activity in the series with Mus musculus [2] stood at 30%.
For `Cc1ccc(CN2C(=O)CSCC2C(=O)N2CCC[C@@H](CNC(=O)OC(C)(C)C)C2)cc1` (single isomer, unassigned), in that order: 15% and 30%.
Consider `CC(C)(C)OC(=O)NC[C@@H]1CCCN(C(=O)[C@@H]2CCC(=O)N2Cc2ccccc2)C1`, for which the inhibition at 10 µM in series [3] came to 26%. Also, the Activity with Mus musculus [2] is given as 20%.
Turning to `CC(C)(C)OC(=O)NC[C@H]1CCCN(C(=O)[C@@H]2CCC(=O)N2Cc2ccccc2Br)C1`, the inhibition at 10 µM in series [3] was 6%. In addition, the Activity in the series with Mus musculus [2] is 50%.
On to `Cc1ccc(CN2C(=O)CCC[C@H]2C(=O)N2CCC[C@@H](CNC(=O)OC(C)(C)C)C2)cc1`, for which, in series [3], the inhibition at 10 µM came out at 18%. Moreover, in the series on Mus musculus [2], the Activity was 40%.
On the same counts, the results for `Cc1cccc(CN2C(=O)CC[C@H]2C(=O)N2CCC[C@@H](CNC(=O)OC(C)(C)C)C2)c1` are 28% and 30%.
For `Cc1ccc(C(=O)N2CSC[C@H]2C(=O)N2CCC[C@H](CNC(=O)OC(C)(C)C)C2)cc1`, the Activity in the series with Mus musculus [1] came to 50%; in the series with Mus musculus [2], 40%.
On to `COc1cccc(CN2C(=O)CC[C@H]2C(=O)N2CCC[C@H](CNC(=O)OC(C)(C)C)C2)c1`, for which the inhibition at 10 µM in series [3] was found to be 6%. In addition, the Activity in the series with Mus musculus [2] is 22.3%.
On the same counts, the results for `CC(C)(C)OC(=O)NC[C@H]1CCCN(C(=O)[C@@H]2CCC(=O)N2Cc2ccccc2)C1` are 17% and 50%.
In the case of `Cc1ccc(CN2C(=O)COC(C)[C@H]2C(=O)N2CCC[C@H](CNC(=O)OC(C)(C)C)C2)cc1` (some centres undefined), in the series on Mus musculus [2], the Activity came out at 30%.
On the same count and under the same terms, in the case of `CC1OCC(=O)N(Cc2ccccc2)[C@@H]1C(=O)N1CCC[C@H](CNC(=O)OC(C)(C)C)C1` (some centres undefined) it was 20%.
`COc1ccccc1CN1C(=O)CC[C@H]1C(=O)N1CCC[C@@H](CNC(=O)OC(C)(C)C)C1`: the inhibition at 10 µM in series [3] stood at 32%. The Activity in the series on Mus musculus [2] amounted to 40%.
For `CC(C)(C)OC(=O)NC[C@H]1CCCN(C(=O)[C@@H]2CCC(=O)N2Cc2ccc(Cl)c(Cl)c2)C1`, in that order: 24% and 30%.
On the same counts, the results for `CC(C)(C)OC(=O)NC[C@H]1CCCN(C(=O)[C@@H]2CCC(=O)N2Cc2c(Cl)cccc2Cl)C1` are 22% and 10%.
Regarding `CC(C)(C)OC(=O)NC[C@@H]1CCCN(C(=O)[C@@H]2CCC(=O)N2Cc2ccc(Cl)c(Cl)c2)C1`, in series [3], the inhibition at 10 µM turned out to be 27%. Moreover, the Activity in the series with Mus musculus [2] amounted to 20%.
For `CC(C)(C)OC(=O)NC[C@H]1CCCN(C(=O)[C@@H]2CCC(=O)N2Cc2ccc3ccccc3c2)C1`, in that order: 22% and 22.3%.
For the molecule `COc1cccc(CN2C(=O)CC[C@H]2C(=O)N2CCC[C@@H](CNC(=O)OC(C)(C)C)C2)c1`, in series [3], the inhibition at 10 µM stood at 34%.
As to `CC(C)(C)OC(=O)NC[C@@H]1CCCN(C(=O)[C@@H]2CCC(=O)N2Cc2cccc(C#N)c2)C1`, in series [3], the inhibition at 10 µM was found to be 6%. Moreover, the Activity with Mus musculus [2] turned out to be 30%.
For `CC(C)(C)OC(=O)NC[C@@H]1CCCN(C(=O)[C@@H]2CCC(=O)N2Cc2ccc(Cl)cc2)C1`, in that order: 35% and 50%.
Take `Cc1ccc(CN2C(=O)CC[C@H]2C(=O)N2CCC[C@@H](CNC(=O)c3ccc(C)cc3)C2)cc1`: the Activity in the series with Mus musculus [2] was determined as 30%.
On to `Cc1ccc(CN2C(=O)CC[C@H]2C(=O)N2CCC[C@@H](CNS(=O)(=O)c3ccc(C)cc3)C2)cc1`, for which the Activity with Mus musculus [2] came out at 40%.
Take `Cc1ccc(C(=O)N2CSC[C@H]2C(=O)N2CCC[C@@H](CNC(=O)OC(C)(C)C)C2)cc1`: the Activity in the series with Mus musculus [1] came to 8%; with Mus musculus [2] it was 10%.
On to `CC(C)(C)OC(=O)NC[C@@H]1CCCN(C(=O)[C@@H]2CCC(=O)N2Cc2c(Cl)cccc2Cl)C1`, for which the inhibition at 10 µM in series [3] stood at 24%. Moreover, the Activity in the series on Mus musculus [2] is given as 20%.
For `CC(C)(C)OC(=O)NC[C@@H]1CCCN(C(=O)[C@@H]2CCC(=O)N2Cc2ccc(Br)cc2)C1`, in that order: 20% and 40%.
As to `CC(C)(C)OC(=O)NC[C@H]1CCCN(C(=O)[C@@H]2CCC(=O)N2Cc2ccc(Br)cc2)C1`, the inhibition at 10 µM in series [3] worked out at 4%. Further, the Activity in the series on Mus musculus [2] amounted to 50%.
In the case of `CC(C)(C)OC(=O)NC[C@H]1CCCN(C(=O)[C@@H]2CCC(=O)N2Cc2ccc(Cl)cc2)C1`, the inhibition at 10 µM in series [3] was 21%. Besides, the Activity in the series with Mus musculus [2] was 15%.
For `Cc1ccc(CN2C(=O)COC(C)[C@H]2C(=O)N2CCC[C@@H](CNC(=O)OC(C)(C)C)C2)cc1` (some centres undefined), the Activity in the series with Mus musculus [2] worked out at 20%.
As for `CC(C)(C)OC(=O)NC[C@@H]1CCCN(C(=O)[C@@H]2CCC(=O)N2Cc2ccc3ccccc3c2)C1`, the inhibition at 10 µM in series [3] is 29%. For the same molecule, the Activity in the series with Mus musculus [2] is on record as 30%.
As for `Cc1ccc(CN2C(=O)CCC[C@H]2C(=O)N2CCC[C@H](CNC(=O)OC(C)(C)C)C2)cc1`, the inhibition at 10 µM in series [3] amounted to 22%. The Activity in the series with Mus musculus [2] is given as 50%.
As for `CC(C)(C)OC(=O)NC[C@@H]1CCCN(C(=O)[C@@H]2CCC(=O)N2Cc2ccc(C#N)cc2)C1`, the inhibition at 10 µM in series [3] stood at 8%. In the series on Mus musculus [2], the Activity stood at 60%.

Values taken from ChEMBL document CHEMBL3259687, “Synthesis and identification of chiral aminomethylpiperidine carboxamides as inhibitor of collagen induced platelet activation” (Eur J Med Chem, 2014).
